Source: patent publication US10072034B2, “Kinase inhibitors” (Respivert Limited, priority 2016, dated 2018)
≈ marks a conversion by molar mass, not a printed value. Read-outs that look alike come from different tables or passages of the source.

Legend:
[1] = Solubility in fasted-state simulated colonic fluid (FaSSCoF) at pH 6.5; type: physicochemical; conditions: pH 6.5, 25° C.; for solubility thermodynamic at 24 h: fasted-state simulated colonic fluid (FaSSCoF), 25 °C, pH 6.5, fassgf or other biorelevant, thermodynamic from solid
Protocol: The solubilities of compounds of the invention in FaSSCoF at pH 6.5 are determined using a modification of a previously-reported procedure (Vertzoni, M., et al. Pharm. Res. 2010, 27, 2187-2196). In place of the bile salt extract employed in the original procedure (which extract is no longer available), the modified procedure uses a mixture of sodium taurocholate (0.15 g), glycocholic acid (0.15 g), ursodeoxycholic acid (0.05 g), cholic acid (0.05 g), and glycodeoxycholic acid (0.05 g). These five bile acids are ground together with a mortar and pestle to produce a fine white powder that is incorporated into the FaSSCoF, as outlined below.
FaSSCoF medium: Tris(hydroxymethyl)aminomethane (Tris; 0.275 g) and maleic acid (0.44 g) are dissolved in water (35 mL) to give a solution whose pH is adjusted to 6.5 by treatment with 0.5M NaOH (ca. 12 mL). The solution is then made up to 50 mL with water. A portion of this Tris/maleate buffer solution (ca. 25 mL) is added to a 0.5 L round-bottomed flask, before being treated with 0.00565 g of the bile acid mixture described above. Solutions of phosphatidylcholine (0.0111 g) in DCM (0.15 mL) and palmitic acid (0.0013 g) in DCM (0.15 mL) are added, then the organic solvent is evaporated off under reduced pressure at 40° C. until a clear solution, with no perceptible DCM odour, is achieved. The volume of the evaporated solution is adjusted to 50 mL by addition of the remainder of Tris/maleate buffer, then BSA (0.115 g) is added, before being dissolved by gentle agitation.
Solubility Determination: Test compounds are suspended in the pH 6.5 FaSSCoF medium to give a maximum final concentration of 2-10 mg/mL. The suspensions are equilibrated at 25° C. for 24 h, before being filtered through a glass fibre C filter. The filtrates are then diluted as appropriate for injection and quantification by HPLC with reference to a standard. Different volumes of the standard, diluted and undiluted sample solutions are injected and the solubilities are calculated using the peak areas determined by integration of the peak found at the same retention time as the principal peak in the standard injection.

c-Src = c-Src (Homo sapiens (Human), UniProt P12931); assay: c-Src enzyme inhibition (FRET, Z-LYTE); type: biochemical
Protocol: (§1) The enzyme inhibitory activities of compounds disclosed herein are determined by FRET using synthetic peptides labelled with both donor and acceptor fluorophores (Z-LYTE, Invitrogen Ltd., Paisley, UK).
(§2) The inhibitory activities of compounds of the invention against c-Src and Syk enzymes (Invitrogen), are evaluated in a similar fashion to that described hereinabove. The relevant enzyme (3000 ng/mL or 2000 ng/mL respectively, 2.5 μL) is incubated with the test compound (either 1 μg/mL, 0.1 μg/mL, 0.01 μg/mL, or 0.001 μg/mL, 2.5 μL each) for 2 hr at RT. The FRET peptides (8 μM. 2.5 μL), and appropriate ATP solutions (2.5 μL, 800 μM for c-Src, and 60 μM ATP for Syk) are then added to the enzymes/compound mixtures and the mixture incubated for 1 hr. Development reagent (protease, 5 μL) is added for 1 hr prior to detection in a fluorescence microplate reader (Varioskan® Flash, ThermoFisher Scientific).
(§3) In all cases, the site-specific protease cleaves non-phosphorylated peptide only and eliminates the FRET signal. Phosphorylation levels of each reaction are calculated using the ratio of coumarin emission (donor) over fluorescein emission (acceptor), for which high ratios indicate high phosphorylation and low ratios indicate low phosphorylation levels. […]

Syk = Syk (Homo sapiens (Human), UniProt P43405); assay: Syk enzyme inhibition (FRET, Z-LYTE); type: biochemical
Protocol: as §1, §2, §3

TNFα release in PBMCs = assay: LPS-induced TNFα release in PBMC cells (assay (b)); type: cell-based; conditions: Homo sapiens, LPS-stimulated PBMCs
Protocol: Peripheral blood mononuclear cells (PBMCs) from healthy subjects are separated from whole blood using a density gradient (Lymphoprep, Axis-Shield Healthcare). The PBMCs are seeded in 96 well plates and treated with compounds at the desired concentration for 2 hours before addition of 1 ng/mL LPS (Escherichia Coli 0111:B4 from Sigma Aldrich) for 24 hours under normal tissue culture conditions (37° C., 5% CO2). The supernatant is harvested for determination of IL-8 and TNFα concentrations by sandwich ELISA (Duo-set, R&D systems) and read on the fluorescence microplate reader (Varioskan® Flash, ThermoFisher Scientific). The concentration at 50% inhibition (IC50) of IL-8 and TNFα production is calculated from the dose response curve.

[2] = tested on: IFN gamma release in PBMCs; assay: IFN gamma release in CD3/CD28 stimulated PBMC cells (assay (c)); type: cell-based; conditions: Homo sapiens, read-out: IC50 Values in PBMCs IFNγ
Protocol: PBMCs from healthy subjects are separated from whole blood using a density gradient (Lymphoprep, Axis-Shield Healthcare). Cells are added to a 96 well plate pre-coated with a mixture of CD3/CD28 monoclonal antibodies (0.3 μg/mL eBioscience and 3 μg/mL BD Pharmingen respectively). Compound at the desired concentration is then added to the wells and the plate left for 3 days under normal tissue culture conditions. Supernatants are harvested and IL-2 and IFN gamma release determined by Sandwich ELISA (Duo-set, R&D System). The IC50 is determined from the dose response curve.

Jurkat cells = assay: Cell cytotoxicity assay, Jurkat cell viability (assay (r)); type: cell-based, human; conditions: 24 hours
Protocol: 1×10^5 Jurkat cells (immortalised human T lymphocytes) are added to the appropriate number of wells of a 96 well plate in 100 μL of media (RPMI supplemented with 10% foetal bovine serum). 1 μL of DMSO control (final concentration 1.0% v/v) or test compound (final concentration 20, 5 or 1 μg/mL) is added to the wells and incubated at 37° C., 5% CO2. After 24 hours, the plate is centrifuged at 1200 rpm for 3 minutes and the supernatant discarded. Cells are then resuspended in 150 μL (final concentration 7.5 μg/mL) of propidium iodide (PI) in PBS and incubated at 37° C., 5% CO2 for 15 minutes. After 15 minutes, cells are analysed by flow cytometry (BD accuri) using the FL3 window. The % viability is calculated as the % of cells that are P negative in the test wells normalised to the DMSO control.

[3] = Run 1, read-out: pH 6.5 FaSSCoF Solubility Run 1
[4] = Run 2, read-out: pH 6.5 FaSSCoF Solubility Run 2

Sequence of c-Src (P12931 whole entry, looked up): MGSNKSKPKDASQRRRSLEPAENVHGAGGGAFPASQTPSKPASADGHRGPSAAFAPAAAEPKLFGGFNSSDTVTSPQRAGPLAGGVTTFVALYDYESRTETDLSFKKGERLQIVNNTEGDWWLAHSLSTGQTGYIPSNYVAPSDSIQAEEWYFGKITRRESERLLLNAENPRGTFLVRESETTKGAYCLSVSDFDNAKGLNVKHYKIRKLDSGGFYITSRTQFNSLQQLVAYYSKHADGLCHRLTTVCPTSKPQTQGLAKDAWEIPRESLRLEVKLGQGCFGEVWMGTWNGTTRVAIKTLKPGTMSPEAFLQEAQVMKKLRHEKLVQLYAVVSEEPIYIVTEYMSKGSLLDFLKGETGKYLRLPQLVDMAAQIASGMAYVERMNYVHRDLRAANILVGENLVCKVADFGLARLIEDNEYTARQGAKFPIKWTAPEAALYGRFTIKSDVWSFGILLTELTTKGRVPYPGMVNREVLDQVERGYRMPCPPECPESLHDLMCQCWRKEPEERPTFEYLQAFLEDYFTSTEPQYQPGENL

C#Cc1cc(Nc2nccc(Oc3ccc(NC(=O)Nc4cc(C(C)(C)C)nn4-c4ccc(C)cc4)c4ccccc34)n2)cc(C(=O)NCCOCCOCCOC)c1 [Reference Compound B, 3-((4-((4-(3-(3-(tert-butyl)-1-(p-tolyl)-1H-pyrazol-5-yl)ureido)naphthalen-1-yl)oxy)pyrimidin-2-yl)amino)-5-ethynyl-N-(2-(2-(2-methoxyethoxy)ethoxy)ethyl)benzamide]
solubility thermodynamic at 24 h [1, 3]: < 1 µg/mL | solubility thermodynamic at 24 h [1, 4]: < 1 µg/mL

COc1cc(Nc2cc(Oc3ccc(NC(=O)Nc4cc(C(C)(C)C)cc(NS(C)(=O)=O)c4OC)c4ccccc34)ccn2)cc(OCCOCCOCC(=O)O)c1 [Example 3]
IC50 (c-Src): 18 nM | IC50 (Syk): 12 nM | IC50 (TNFα release in PBMCs): 10.8 nM | IC50 [2]: 31.8 nM | % Viability at 1 μg/mL (Jurkat cells): 99% | % Viability at 5 μg/mL (Jurkat cells): 99% | % Viability at 20 μg/mL (Jurkat cells): 96% | solubility thermodynamic at 24 h [1, 3]: 280 µg/mL (≈ 342 µM) | solubility thermodynamic at 24 h [1, 4]: 200 µg/mL (≈ 245 µM)

COc1cc(Nc2nccc(Oc3ccc(NC(=O)Nc4cc(C(C)(C)C)cc(NS(C)(=O)=O)c4OC)c4ccccc34)n2)cc(OCCOCCOCCC(=O)O)c1 [Reference Compound A, 3-(2-(2-(3-((4-((4-(3-(5-(tert-butyl)-2-methoxy-3-(methylsulfonamido)phenyl)ureido)naphthalen-1-yl)oxy)-pyrimidin-2-yl)amino)-5-methoxyphenoxy)ethoxy)ethoxy)propanoic acid]
% Viability at 1 μg/mL (Jurkat cells): 96% | % Viability at 5 μg/mL (Jurkat cells): 93% | % Viability at 20 μg/mL (Jurkat cells): 48% | pH 6.5 FaSSCoF Solubility Run 1 ([1]; 24 h, Run 1): 0.007 mg/mL | pH 6.5 FaSSCoF Solubility Run 2 ([1]; 24 h, Run 2): 0.007 mg/mL
